Measured values: PubChem BioAssay (NCI)
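Each compound was tested at five concentrations against cells in 96-well plates for 48 hours. GI50 marks 50% less growth. Definition used: TGI = concentration required for complete inhibition of growth.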

Tests used:
Experiment in all cases: NCI anticancer screen, dose series, 48 h
NCI-H460 lung = tested on: NCI-H460 lung
OVCAR-8 ovarian = tested on: OVCAR-8 ovarian
MDA-MB-435 = tested on: MDA-MB-435
M14 melanoma = tested on: M14 melanoma
TK-10 renal = tested on: TK-10 renal
OVCAR-3 ovarian = tested on: OVCAR-3 ovarian
MCF7 breast = tested on: MCF7 breast
HT29 colon = tested on: HT29 colon
SK-MEL-2 melanoma = tested on: SK-MEL-2 melanoma

| Structure (SMILES) | TGI (NCI-H460 lung) [µM] | TGI (OVCAR-8 ovarian) [µM] | TGI (MDA-MB-435) [µM] | TGI (M14 melanoma) [µM] | TGI (TK-10 renal) [µM] | TGI (OVCAR-3 ovarian) [µM] | TGI (MCF7 breast) [µM] | TGI (HT29 colon) [µM] | TGI (SK-MEL-2 melanoma) [µM] | GI50 (MDA-MB-435) [nM] | GI50 (SK-MEL-2 melanoma) [µM] |
| --- | --- | --- | --- | --- | --- | --- | --- | --- | --- | --- | --- |
| CC(C)(C)OC(=O)CC(NC(=O)OC(C)(C)C)C(=O)Oc1ccc([N+](=O)[O-])cc1 (stereo not drawn) | > 100 | > 100 | > 100 | > 100 | > 100 | > 100 | > 100 | > 100 | > 100 | – | – |
| O[C@H]1[C@@H]2OC[C@@H](O)[C@H](OCc3ccccc3)[C@@](COCc3ccccc3)(O2)[C@@H]1OCc1ccccc1 | 53.8 | 31 | 32.1 | 36.3 | 32.5 | 19.4 | 39.6 | 28.7 | 29.7 | – | – |
| CC(=O)Oc1ccc2c3c1[C@@H]1O[C@@H]1c1cccc(c1-3)[C@@H]1O[C@H]21 | – | 2.85 | 3.38 | 3.27 | 6.12 | – | > 100 | – | > 100 | 1790 | 3.12 |
| CCCC(=O)OC1=C(c2ccccc2)Sc2ccccc2-n2cccc21 | – | > 10 | > 10 | > 10 | > 10 | – | > 10 | > 10 | – | – | – |
| NC(=O)N=Nc1c2ccccc2n2[nH]ccc12 | > 100 | > 100 | > 100 | > 100 | > 100 | > 100 | 66.7 | > 100 | > 100 | – | – |
| Nc1ccc2c(c1)S(=O)(=O)c1cc(N)ccc1-2 | > 100 | > 100 | > 100 | > 100 | > 100 | > 100 | > 100 | > 100 | > 100 | – | – |
| C=C(C)COC(=O)COCC(=O)OCC(=C)C | > 100 | > 100 | > 100 | > 100 | > 100 | > 100 | > 100 | > 100 | – | – | – |
| CC(=O)NC1=CC(=O)C=C(Cl)C1=O | > 100 | > 100 | 32.2 | > 100 | > 100 | > 100 | 82.4 | > 100 | > 100 | – | – |
| CCOC(=O)C(C(=O)OCC)C(NC(=O)Nc1cc(C(F)(F)F)ccc1OC)(C(F)(F)F)C(F)(F)F | > 100 | > 100 | 43.8 | 45 | > 100 | 54.3 | > 100 | 92.1 | – | – | – |
| O=C(CSCC(=O)N/N=C/c1ccncc1)N/N=C/c1ccncc1 | > 100 | > 100 | > 100 | > 100 | > 100 | > 100 | > 100 | > 100 | > 100 | – | – |
| O=c1c2cc([N+](=O)[O-])cnc2sn1-c1ccc(Br)cc1 | > 100 | > 100 | > 100 | > 100 | > 100 | > 100 | > 100 | 79.2 | 85.5 | – | – |
